Measurements: US12708673B2, “Methods and compositions related to peptides and proteins with c-terminal elements” (Sanford Burnham Prebys Medical Discovery Institute, priority 2008, dated 2026)

What was measured:
[1] = system: PPC-1 cells; test: T7 phage internalization into PPC-1 (PPC1) cells at 37° C. (acid wash and titration, or anti-T7 staining and confocal imaging); assay type: cell-based, human
Description: FIG. 2A: Binding of T7 phage to prostate cancer cells depends on the display of a C-terminal arginine on the phage particles. PPC1 cells were incubated with T7 bacteriophage displaying derivatives of the G7 (upper graph) or RPARPAR peptide (SEQ ID NO: 2) (lower graph) at 4° C., and the bound phage was quantified by plaque assay. Binding is expressed in fold over of the non-binding G7 control phage. FIG. 2B: Phage displaying C-terminal arginine is internalized into cultured PPC1 cells (arrow, nuclear internalization; arrowhead, cytoplasmic internalization). A panel of T7 phage clones were incubated at 37° C. with PPC1 cells grown on collagen-coated coverslips, stained with anti T7 antibody and imaged by confocal microscopy.
Phage display. For in vivo phage display, mice were injected intravenously with 10^10 plaque-forming units (pfu) of T7 phage followed by perfusion of the circulatory system and determination of the bound phage in target organs by titration. For cell binding studies on cultured cells (in vitro display) and organ-derived cell suspensions (ex vivo display), the cells were incubated with 10^9 pfu of phage at 4° C., washed, lysed, and quantified by titration. Incubation at 37° C. followed by low pH wash (glycine-HCl, pH 2.5) was used to assess the amount of internalized phage.
For biopanning and phage binding studies (Hoffman, J. A. et al., 2004), cultured cells were grown to confluence and harvested with trypsin and mouse organs were dissociated using Medimachine (BD Biosciences, San Jose, CA). To measure phage binding, 10^6 cells in binding buffer (DMEM containing 1% BSA) were incubated with 10^9 pfu/ml of T7 phage for 1 hour at 4° C. The cells were washed 4 times with the binding buffer, lysed in LB bacterial growth medium containing 1% NP-40, and titrated. Phage internalization assays used the same procedure, except that the cells were incubated with the phage at 37° C., and that an acidic buffer (500 mM sodium chloride, 0.1 M glycine, 1% BSA, pH 2.5) was used instead of binding buffer in the second wash.
Centrifugation on a silicone oil cushion (1.03 g/ml) was used to separate unbound phage from cells during time course experiments. Inhibitors of phage binding and internalization (heparin, chondroitin, glycocalyx removal enzymes, endocytosis inhibitors, free peptides, quantum dots and UV-inactivated phage) were added to the cells 20 minutes prior to incubation with phage. Endocytosis inhibitors used in this study were the following: nystatin (50 μg/ml), genistein (100 μg/ml), chlorpromazine (5 μg/ml), 5-(N-ethyl-N-isopropyl) amiloride (100 μM), wortmannin (10 μM).
Immunofluorescence staining. Cultured cells (2×10^5 cells) were grown in 6-well tissue culture plates on collagen-I coated coverslips (BD Biosciences, San Jose, CA) overnight at 37° C. in 5% CO2, and incubated with 10^8 pfu of T7 phage. The cells were fixed in 4% paraformaldehyde or cold (−20° C.) methanol, and stained with antibodies. Nuclei were stained with DAPI or […]. A polyclonal rabbit anti-T7 antibody was generated in-house as described previously (Laakkonen, P. et al. 2002b), except that an additional phage purification step using […] centrifugation was included. Other primary antibodies used were rat anti-mouse CD31 monoclonal antibody (BD Biosciences), rabbit anti-NRP-1, mouse anti-human Lamp-1, mouse anti-human caveolin (Millipore, Temecula, CA), mouse anti-NRP-1 (Miltenyi Biotec Inc., Auburn, CA), mouse anti-human EEA-1 (BD Biosciences, San Jose, CA). The secondary antibodies, Alexa594 goat antibodies to mouse, rat, and rabbit immunoglobulins and Alexa488 donkey anti-rabbit antibody were from Invitrogen (Carlsbad, CA). Cells and tissue sections were examined by confocal microscopy (Fluoview 500, Olympus America Inc., Center Valley, PA).

[2] = system: PPC-1 cells; test: Confocal immunofluorescence co-staining of phage/qdots with cellular markers in PPC-1 cells; assay type: cell-based, human

**Q.** What does the source list for RPARPAR [RPARPAR phage]?
**A.** Effect of pre-incubation with UV-inactivated phage on iRGD phage internalization [1]: decreased; Phage internalization into PPC-1 cells (in words) ([1]; 37° C.): robust binding and internalization; Time to perinuclear accumulation ([1]; phage, 37° C.): 1 h; Time to plasma membrane association ([1]; phage, 37° C.): 15 min; Overlap of phage immunoreactivity with labeled cholera toxin subunit B ([2]; 180 minutes): significant overlap; Overlap of internalized phage staining with subcellular compartment markers ([2]; LAMP-1, caveolin-1, calnexin, EEA-1, 60 minutes): did not show any clear overlap
